Test results published in patent publication US10588865B2, “Tamper resistant oral opioid agonist formulations” (Purdue Pharma L.P., priority 2000, dated 2020).
Counter-ions that a name gives are not always drawn.

How the values were obtained:
[1] = after oral doses; cited from earlier work
[2] = in comparison to a 15 mg dose of hydrocodone
Description: In certain preferred embodiments, the opioid agonist is oxycodone or hydrocodone.

[3] = cited from earlier work
man = details: cited from earlier work
[4] = test system: methadone-dependent subjects; details: immediate-release naltrexone, interim analysis
[5] = test system: morphine-dependent subjects; test: Example 17: precipitated withdrawal after hydrocodone immediate release tablets with naltrexone
normal subjects = test: Example 19: effect of naltrexone on subjective and physiological effects of 15 mg hydrocodone; assay type: in vivo
[6] = suggested by clinical data of examples 17, 18 and 19

## C[C@H]1[C@H]2Cc3ccc(O)cc3[C@]1(C)CCN2CC1CC1 [cyclazocine]
[1]
  duration of action: ~24 h

## Meperidine
[2]
  Calculated Dose (equianalgesic dose): 135.0 mg

## CN1CC[C@]23CCCC[C@H]2[C@H]1Cc1ccc(O)cc13 [Levorphanol]
[2]
  Calculated Dose (equianalgesic dose): 1.8 mg

## O=C1CC[C@@]2(O)[C@H]3Cc4ccc(O)c5c4[C@@]2(CCN3CC2CC2)[C@H]1O5 [hydrochloride salt of naltrexone, Naltrexone HCl]
[3]
  water solubility: very water-soluble
[3]; hydrochloride salt
  solubility in water: about 100 mg/cc

## CCC(=O)C(CC(C)N(C)C)(c1ccccc1)c1ccccc1 (stereo not drawn) [Methadone]
[2]
  Calculated Dose (equianalgesic dose): 9.0 mg

## COc1ccc2c3c1OC1C(=O)CC[C@H]4[C@@H](C2)N(C)CC[C@]314 (stereo partly drawn) [Hydrocodone, 4,5-epoxy-3-methoxy-17-methylmorphinan-6-one]
[2]
  Calculated Dose (equianalgesic dose): 15.0 mg

## C=CCN1CC[C@]23c4c5ccc(O)c4O[C@H]2C(=O)CC[C@@]3(O)[C@H]1C5 [naloxone]
man; One mg intravenously
  block of the effect of 25 mg of heroin: completely block
man; given intramuscularly or intravenously in man
  dose that prevents or promptly reverses the effects of morphine-like opioid agonist: 0.4 to 0.8 mg
man; oral, first passage through the liver
  potency after oral administration compared with parenteral administration: significantly lower potency

## COc1ccc2c3c1O[C@H]1[C@@H](O)C=C[C@H]4[C@@H](C2)N(C)CC[C@@]341 [Codeine]
[2]
  Calculated Dose (equianalgesic dose): 90.0 mg

## O=C1CC[C@@]2(O)[C@H]3Cc4ccc(O)c5c4[C@@]2(CCN3CC2CC2)[C@H]1O5 [naltrexone]
[4]
  dose able to elicit the signs and symptoms of withdrawal: 0.5 mg
[5]; 1 mg naltrexone dose with hydrocodone immediate release tablets, opioid-dependent subjects
  liking of the agonist: less liking of the agonist relative to the combination with placebo
[5]; subjects in example 17 receiving the 0.25-mg
  withdrawal signs: absence of withdrawal signs
Normal subjects; 15 mg hydrocodone
  dose able to antagonize several centrally mediated opioid effects of hydrocodone, including pupillary miosis: 0.4 mg
Normal subjects; [6]
  bio-available, immediate-release dose that will not affect analgesia to any significant degree: 0.125 mg
  prompt release of bio-available drug that will affect analgesia: ≥ 0.25 mg

## COc1ccc2c3c1O[C@H]1C(=O)CC[C@@]4(O)[C@@H](C2)N(C)CC[C@]314 [Oxycodone, 4,5-expoxy-14-hydroxy-3-methoxy-17-methylmorphinan-6-one]
[2]
  Calculated Dose (equianalgesic dose): 13.5 mg
